pEC50, pIC50: −log10 of the molar value.
Legend:
[1] = tested on: KMS11 (human myeloma cell line); assay: Cell Proliferation Assay (CellTiter-Glo, 3 days); assay type: cell-based; conditions: KMS-11, 72 h, KMS11-luc cells
Procedure, shortened: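 KMS11 myeloma cells, 2000 per well in IMDM with 10% FBS, exposed to compound for 3 days at 37° C. Viability read by CellTiter-Glo luminescence; EC50 derived.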

Pim 1 = Pim 1 (Homo sapiens, UniProt P11309); assay: Pim 1 AlphaScreen assay (high ATP)
Pim 2 = Pim 2 (Homo sapiens, UniProt Q9P1W9); assay: Pim 2 AlphaScreen assay (high ATP)
Pim 2, sequence (Q9P1W9 whole entry): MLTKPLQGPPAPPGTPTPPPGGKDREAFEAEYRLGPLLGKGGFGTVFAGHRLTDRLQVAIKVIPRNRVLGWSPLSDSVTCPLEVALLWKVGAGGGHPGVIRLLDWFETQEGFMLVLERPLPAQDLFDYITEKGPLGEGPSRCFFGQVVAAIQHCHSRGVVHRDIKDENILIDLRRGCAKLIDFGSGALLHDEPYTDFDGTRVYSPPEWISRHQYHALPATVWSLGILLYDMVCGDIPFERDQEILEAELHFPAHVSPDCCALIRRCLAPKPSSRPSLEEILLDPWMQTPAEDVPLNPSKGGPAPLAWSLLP

Pim 3 = Pim 3 (Homo sapiens, UniProt Q86V86); assay: Pim 3 AlphaScreen assay (high ATP)

Pim 1, sequence (P11309 whole entry): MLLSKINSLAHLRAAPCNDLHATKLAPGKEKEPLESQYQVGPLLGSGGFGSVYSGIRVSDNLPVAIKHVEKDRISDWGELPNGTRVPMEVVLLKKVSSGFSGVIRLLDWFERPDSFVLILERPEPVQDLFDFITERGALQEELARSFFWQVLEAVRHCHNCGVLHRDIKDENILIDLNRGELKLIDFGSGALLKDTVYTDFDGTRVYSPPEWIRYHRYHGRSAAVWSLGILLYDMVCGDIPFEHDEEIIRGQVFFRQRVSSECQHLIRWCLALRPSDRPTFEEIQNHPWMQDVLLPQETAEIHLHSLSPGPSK

`CC(C)[C@@H]1C[C@H](N)C[C@H](c2ccncc2NC(=O)c2ccc(F)c(-c3c(F)cc(C4CCOCC4)cc3F)n2)C1` [Example 139, N-(4-((1R,3S,5S)-3-amino-5-isopropylcyclohexyl)pyridin-3-yl)-6-(2,6-difluoro-4-(tetrahydro-2H-pyran-4-yl)phenyl)-5-fluoropicolinamide] gave a pEC50 [1] of 6.82, a pIC50 (Pim 1) of 11.00 and a pIC50 (Pim 2) of 9.20. For the same compound, the pIC50 (Pim 3) was 9.44.

`C[C@H]1C[C@@H](c2ccncc2NC(=O)c2ccc(F)c(-c3c(F)cc(OC4CCOCC4)cc3F)n2)C[C@@H](N)[C@H]1O` [Example 140, N-(4-((1R,3R,4S,5S)-3-amino-4-hydroxy-5-methylcyclohexyl)pyridin-3-yl)-6-(2,6-difluoro-4-(tetrahydro-2H-pyran-4-yloxy)phenyl)-5-fluoropicolinamide] gave a pEC50 [1] of 6.06, a pIC50 (Pim 1) of 10.40 and a pIC50 (Pim 2) of 8.22. For the same compound, the pIC50 (Pim 3) was 8.77.

Compound `CCOCCOc1cc(F)c(-c2nc(C(=O)Nc3cnccc3[C@H]3C[C@@H](N)[C@H](O)[C@@H](C)C3)ccc2F)c(F)c1` [Example 141, N-(4-((1R,3R,4R,5S)-3-amino-4-hydroxy-5-methylcyclohexyl)pyridin-3-yl)-6-(4-(2-ethoxyethoxy)-2,6-difluorophenyl)-5-fluoropicolinamide] has a pEC50 [1] of 5.60, a pIC50 (Pim 1) of 9.35 and a pIC50 (Pim 2) of 7.43. The pIC50 (Pim 3) was 7.80.

For `C[C@@H]1C[C@H](N)C[C@H](c2ccncc2NC(=O)c2ccc(F)c(-c3c(F)cc(-c4ccnnc4)cc3F)n2)C1` [Example 142, N-(4-((1R,3S,5S)-3-amino-5-methylcyclohexyl)pyridin-3-yl)-6-(2,6-difluoro-4-(pyridazin-4-yl)phenyl)-5-fluoropicolinamide], the pEC50 [1] was 5.78, the pIC50 (Pim 1) was 9.92 and the pIC50 (Pim 2) was 7.55. The pIC50 (Pim 3) was 7.75.

For `C[C@@H]1C[C@H](N)C[C@H](c2ccncc2NC(=O)c2ccc(F)c(-c3c(F)cc(OCC(=O)N(C)C)cc3F)n2)C1` [Example 143, N-(4-((1R,3S,5S)-3-amino-5-methylcyclohexyl)pyridin-3-yl)-6-(4-(2-(dimethylamino)-2-oxoethoxy)-2,6-difluorophenyl)-5-fluoropicolinamide], the pEC50 [1] was 6.71, the pIC50 (Pim 1) was 10.30 and the pIC50 (Pim 2) was 8.03. The pIC50 (Pim 3) was 9.11.

Compound `CCOC(C)(C)c1cc(F)c(-c2nc(C(=O)Nc3cnccc3[C@@H]3C[C@H](C)C[C@H](N)C3)ccc2F)c(F)c1` [Example 145, N-(4-((1R,3S,5S)-3-amino-5-methylcyclohexyl)pyridin-3-yl)-6-(4-(2-ethoxypropan-2-yl)-2,6-difluorophenyl)-5-fluoropicolinamide] has a pEC50 [1] of 6.61, a pIC50 (Pim 1) of 10.52 and a pIC50 (Pim 2) of 8.46. The pIC50 (Pim 3) was 8.70.

`CCOC(C)(C)c1cc(F)c(-c2nc(C(=O)Nc3cnccc3[C@H]3C[C@@H](N)[C@H](O)[C@@H](C)C3)ccc2F)c(F)c1` [Example 146, N-(4-((1R,3R,4R,5S)-3-amino-4-hydroxy-5-methylcyclohexyl)pyridin-3-yl)-6-(4-(2-ethoxypropan-2-yl)-2,6-difluorophenyl)-5-fluoropicolinamide] was tested, and the pEC50 [1] was 6.28, the pIC50 (Pim 1) was 10.05 and the pIC50 (Pim 2) was 8.25. For the same compound, the pIC50 (Pim 3) was 8.20.

For `CC(C)OCc1cc(F)c(-c2nc(C(=O)Nc3cnccc3[C@@H]3C[C@H](C)C[C@H](N)C3)ccc2F)c(F)c1` [Example 147, N-(4-((1R,3S,5S)-3-amino-5-methylcyclohexyl)pyridin-3-yl)-6-(2,6-difluoro-4-(isopropoxymethyl)phenyl)-5-fluoropicolinamide], the pEC50 [1] was 6.84, the pIC50 (Pim 1) was 10.70 and the pIC50 (Pim 2) was 8.56. It also gave a pIC50 (Pim 3) of 8.99.

Compound `CC(C)OCc1cc(F)c(-c2nc(C(=O)Nc3cnccc3[C@H]3C[C@@H](N)[C@H](O)[C@@H](C)C3)ccc2F)c(F)c1` [Example 148, N-(4-((1R,3R,4R,5S)-3-amino-4-hydroxy-5-methylcyclohexyl)pyridin-3-yl)-6-(2,6-difluoro-4-(isopropoxymethyl)phenyl)-5-fluoropicolinamide] has a pEC50 [1] of 6.73, a pIC50 (Pim 1) of 10.30 and a pIC50 (Pim 2) of 8.48. It also gave a pIC50 (Pim 3) of 8.83.

For `C[C@@H]1C[C@H](N)C[C@H](c2ccncc2NC(=O)c2ccc(F)c(-c3c(F)cc(COC4CCOCC4)cc3F)n2)C1` [Example 149, N-(4-((1R,3S,5S)-3-amino-5-methylcyclohexyl)pyridin-3-yl)-6-(2,6-difluoro-4-((tetrahydro-2H-pyran-4-yloxy)methyl)phenyl)-5-fluoropicolinamide], the pEC50 [1] was 6.83, the pIC50 (Pim 1) was 10.52 and the pIC50 (Pim 2) was 8.53. For the same compound, the pIC50 (Pim 3) was 8.76.

`N[C@H]1CCC[C@@H](c2ccncc2NC(=O)c2ccc(F)c(-c3c(F)cc(COC4CCOCC4)cc3F)n2)C1` [Example 154, N-(4-((1R,3S)-3-aminocyclohexyl)pyridin-3-yl)-6-(2,6-difluoro-4-((tetrahydro-2H-pyran-4-yloxy)methyl)phenyl)-5-fluoropicolinamide] was tested, and the pEC50 [1] was 6.31, the pIC50 (Pim 1) was 10.00 and the pIC50 (Pim 2) was 7.49. The pIC50 (Pim 3) was 8.28.

Work on `C[C@@H]1C[C@H](N)C[C@H](c2ccncc2NC(=O)c2ccc(F)c(-c3c(F)cc(C4(O)CCCC4)cc3F)n2)C1` [Example 163, N-(4-((1R,3S,5S)-3-amino-5-methylcyclohexyl)pyridin-3-yl)-6-(2,6-difluoro-4-(1-hydroxycyclopentyl)phenyl)-5-fluoropicolinamide] yielded a pEC50 [1] of 7.48, a pIC50 (Pim 1) of 11.00 and a pIC50 (Pim 2) of 9.03. For the same compound, the pIC50 (Pim 3) was 9.77.

In the case of `C[C@@H]1C[C@H](N)C[C@H](c2ccncc2NC(=O)c2ccc(F)c(-c3c(F)cc(C(C)(C)C#N)cc3F)n2)C1` [Example 164, N-(4-((1R,3S,5S)-3-amino-5-methylcyclohexyl)pyridin-3-yl)-6-(4-(2-cyanopropan-2-yl)-2,6-difluorophenyl)-5-fluoropicolinamide], the pEC50 [1] was 7.06, the pIC50 (Pim 1) was 10.70 and the pIC50 (Pim 2) was 8.67. For the same compound, the pIC50 (Pim 3) was 8.69.

Work on `C[C@H]1C[C@@H](c2ccncc2NC(=O)c2ccc(F)c(-c3c(F)cc(C(C)(C)C#N)cc3F)n2)C[C@@H](N)[C@@H]1O` [Example 165, N-(4-((1R,3R,4R,5S)-3-amino-4-hydroxy-5-methylcyclohexyl)pyridin-3-yl)-6-(4-(2-cyanopropan-2-yl)-2,6-difluorophenyl)-5-fluoropicolinamide] yielded a pEC50 [1] of 7.11, a pIC50 (Pim 1) of 10.40 and a pIC50 (Pim 2) of 8.73. It also gave a pIC50 (Pim 3) of 8.64.

`C[C@@H]1C[C@H](N)C[C@H](c2ccncc2NC(=O)c2ccc(F)c(-c3c(F)cc(N4CCOCC4)cc3F)n2)C1` [Example 168, N-(4-((1R,3S,5S)-3-amino-5-methylcyclohexyl)pyridin-3-yl)-6-(2,6-difluoro-4-morpholinophenyl)-5-fluoropicolinamide] gave a pEC50 [1] of 7.28, a pIC50 (Pim 1) of 10.70 and a pIC50 (Pim 2) of 8.87. The pIC50 (Pim 3) was 9.02.

With `C[C@H]1C[C@@H](c2ccncc2NC(=O)c2ccc(F)c(-c3c(F)cc(N4CCOCC4)cc3F)n2)C[C@@H](N)[C@@H]1O` [Example 169, N-(4-((1R,3R,4R,5S)-3-amino-4-hydroxy-5-methylcyclohexyl)pyridin-3-yl)-6-(2,6-difluoro-4-morpholinophenyl)-5-fluoropicolinamide] the pEC50 [1] was 7.47, the pIC50 (Pim 1) was 11.00 and the pIC50 (Pim 2) was 8.94. For the same compound, the pIC50 (Pim 3) was 9.42.

Work on `C[C@@H]1C[C@H](N)C[C@H](c2ccncc2NC(=O)c2ccc(F)c(-c3c(F)cc(C4(C#N)CCOCC4)cc3F)n2)C1` [Example 170, N-(4-((1R,3S,5S)-3-amino-5-methylcyclohexyl)pyridin-3-yl)-6-(4-(4-cyanotetrahydro-2H-pyran-4-yl)-2,6-difluorophenyl)-5-fluoropicolinamide] yielded a pEC50 [1] of 7.08, a pIC50 (Pim 1) of 10.52 and a pIC50 (Pim 2) of 8.55. The pIC50 (Pim 3) was 8.34.

In the case of `N#CC1(c2cc(F)c(-c3nc(C(=O)Nc4cnccc4[C@@H]4CCC[C@H](N)C4)ccc3F)c(F)c2)CCOCC1` [Example 172, N-(4-((1R,3S)-3-aminocyclohexyl)pyridin-3-yl)-6-(4-(4-cyanotetrahydro-2H-pyran-4-yl)-2,6-difluorophenyl)-5-fluoropicolinamide], the pEC50 [1] was 6.39, the pIC50 (Pim 1) was 10.10 and the pIC50 (Pim 2) was 7.53. It also gave a pIC50 (Pim 3) of 7.71.

Compound `Cc1noc(C)c1-c1cc(F)c(-c2nc(C(=O)Nc3cnccc3[C@H]3C[C@@H](N)[C@H](O)[C@@H](C)C3)ccc2F)c(F)c1` [Example 173, N-(4-((1R,3R,4R,5S)-3-amino-4-hydroxy-5-methylcyclohexyl)pyridin-3-yl)-6-(4-(3,5-dimethylisoxazol-4-yl)-2,6-difluorophenyl)-5-fluoropicolinamide] has a pEC50 [1] of 5.61, a pIC50 (Pim 1) of 9.59 and a pIC50 (Pim 2) of 7.23. The pIC50 (Pim 3) was 7.53.

With `Cc1noc(C)c1-c1cc(F)c(-c2nc(C(=O)Nc3cnccc3[C@@H]3C[C@H](C)C[C@H](N)C3)ccc2F)c(F)c1` [Example 174, N-(4-((1R,3S,5S)-3-amino-5-methylcyclohexyl)pyridin-3-yl)-6-(4-(3,5-dimethylisoxazol-4-yl)-2,6-difluorophenyl)-5-fluoropicolinamide] the pEC50 [1] was 5.99, the pIC50 (Pim 1) was 10.10 and the pIC50 (Pim 2) was 7.52. It also gave a pIC50 (Pim 3) of 8.00.

`COCCOc1cc(F)c(-c2nc(C(=O)Nc3cnccc3[C@H]3C[C@@H](N)C[C@@H](C(C)C)C3)ccc2F)c(F)c1` [Example 175, N-(4-((1R,3S,5S)-3-amino-5-isopropylcyclohexyl)pyridin-3-yl)-6-(2,6-difluoro-4-(2-methoxyethoxy)phenyl)-5-fluoropicolinamide] gave a pEC50 [1] of 6.75, a pIC50 (Pim 1) of 11.00 and a pIC50 (Pim 2) of 9.01. The pIC50 (Pim 3) was 9.34.

`COCCCOc1cc(F)c(-c2nc(C(=O)Nc3cnccc3[C@@H]3C[C@H](C)C[C@H](N)C3)ccc2F)c(F)c1` [Example 176, N-(4-((1R,3S,5S)-3-amino-5-methylcyclohexyl)pyridin-3-yl)-6-(2,6-difluoro-4-(3-methoxypropoxy)phenyl)-5-fluoropicolinamide] was tested, and the pEC50 [1] was 6.74, the pIC50 (Pim 1) was 11.00 and the pIC50 (Pim 2) was 8.79. The pIC50 (Pim 3) was 9.32.

Source: US20120225062A1 (priority 2011, published 2012)
